Experimental data as given in patent US10577368B2 (The United States of America, as represented by the …, priority 2013, dated 2020).
Values joined by “and” are separate entries in the source; they are usually repeats but may differ in a detail not shown here. Equal values may be shown once. Read-outs that look alike come from different tables or passages of the source.

Experiments:
[1] = target: r Sigma 2 (Rattus norvegicus (Rat), UniProt Q5U3Y7); test: Off-target binding, Sigma-2; details: for Ki: off-target binding; for Interaction at Sigma-2: 10 μM
Chain of r Sigma 2 (Q5U3Y7 whole entry): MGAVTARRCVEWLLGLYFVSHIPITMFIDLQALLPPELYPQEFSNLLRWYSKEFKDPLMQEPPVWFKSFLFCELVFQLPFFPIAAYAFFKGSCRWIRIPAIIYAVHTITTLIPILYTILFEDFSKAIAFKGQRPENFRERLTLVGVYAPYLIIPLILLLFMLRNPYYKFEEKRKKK
Description: (§1) The results are set forth below.

[2] = target: hH4 histamine receptor (Homo sapiens (Human), UniProt Q9H3N8); test: Off-target binding, H4
Chain of hH4 histamine receptor (Q9H3N8 whole entry): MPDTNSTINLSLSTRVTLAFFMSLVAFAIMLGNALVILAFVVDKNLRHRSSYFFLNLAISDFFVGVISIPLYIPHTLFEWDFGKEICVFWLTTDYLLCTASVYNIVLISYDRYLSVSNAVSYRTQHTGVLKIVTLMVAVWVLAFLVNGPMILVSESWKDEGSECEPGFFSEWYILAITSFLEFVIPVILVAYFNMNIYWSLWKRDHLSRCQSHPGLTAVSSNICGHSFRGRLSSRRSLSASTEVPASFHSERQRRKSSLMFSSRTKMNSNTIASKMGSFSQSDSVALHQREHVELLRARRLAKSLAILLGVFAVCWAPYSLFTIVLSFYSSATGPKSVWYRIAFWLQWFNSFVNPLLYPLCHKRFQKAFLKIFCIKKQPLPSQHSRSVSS
Description: as §1

[3] = target: h5HT2C (Homo sapiens, UniProt P28335); test: Off-target binding, 5HT2C
[4] = target: h Beta 3 adrenergic receptor (Homo sapiens (Human), UniProt P13945); test: Off-target binding, β3
Chain of h Beta 3 adrenergic receptor (P13945 whole entry): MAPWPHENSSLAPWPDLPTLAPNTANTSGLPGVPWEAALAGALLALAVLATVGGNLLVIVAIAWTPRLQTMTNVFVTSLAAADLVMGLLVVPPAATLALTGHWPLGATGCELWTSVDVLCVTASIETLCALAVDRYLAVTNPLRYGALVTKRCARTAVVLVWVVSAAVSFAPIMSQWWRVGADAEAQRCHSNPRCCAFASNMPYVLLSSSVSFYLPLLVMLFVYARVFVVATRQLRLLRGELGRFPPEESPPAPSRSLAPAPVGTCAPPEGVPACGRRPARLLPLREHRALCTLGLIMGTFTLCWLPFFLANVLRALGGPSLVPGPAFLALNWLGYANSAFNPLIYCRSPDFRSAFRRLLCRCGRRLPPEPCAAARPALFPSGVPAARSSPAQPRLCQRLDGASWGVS

[5] = target: Alpha 2B adrenergic receptor (Homo sapiens (Human), UniProt P18089); test: Off-target binding, α2B
Chain of Alpha 2B adrenergic receptor (P18089 whole entry): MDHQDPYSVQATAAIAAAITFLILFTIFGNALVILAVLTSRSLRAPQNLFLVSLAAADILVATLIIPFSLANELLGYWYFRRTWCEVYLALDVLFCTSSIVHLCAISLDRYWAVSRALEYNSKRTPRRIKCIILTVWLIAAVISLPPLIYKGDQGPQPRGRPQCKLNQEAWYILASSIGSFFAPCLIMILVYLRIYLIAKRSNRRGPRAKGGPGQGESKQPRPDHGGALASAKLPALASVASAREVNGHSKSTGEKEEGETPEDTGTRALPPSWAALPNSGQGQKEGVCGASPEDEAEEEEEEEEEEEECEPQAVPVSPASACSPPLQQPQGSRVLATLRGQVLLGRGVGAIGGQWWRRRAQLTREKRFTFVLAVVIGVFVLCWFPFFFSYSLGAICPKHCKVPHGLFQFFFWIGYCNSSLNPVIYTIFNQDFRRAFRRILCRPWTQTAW
Description: as §1

[6] = target: DOR opiate receptor (Homo sapiens (Human), UniProt P41143); test: Off-target binding, DOR
Chain of DOR opiate receptor (P41143 whole entry): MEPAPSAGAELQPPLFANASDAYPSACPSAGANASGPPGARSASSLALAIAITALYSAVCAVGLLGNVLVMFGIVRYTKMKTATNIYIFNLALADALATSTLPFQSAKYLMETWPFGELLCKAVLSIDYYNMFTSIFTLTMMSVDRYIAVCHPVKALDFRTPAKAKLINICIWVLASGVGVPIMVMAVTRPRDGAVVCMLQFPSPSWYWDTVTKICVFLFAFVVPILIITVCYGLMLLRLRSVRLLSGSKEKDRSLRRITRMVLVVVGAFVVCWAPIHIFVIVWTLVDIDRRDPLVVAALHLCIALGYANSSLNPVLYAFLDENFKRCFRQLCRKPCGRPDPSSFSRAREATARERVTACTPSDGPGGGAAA

[7] = target: h5HT2B (Homo sapiens (Human), UniProt P41595); test: Off-target binding, 5HT2B
[8] = target: h5HT1A (Homo sapiens (Human), UniProt P08908); test: Off-target binding, 5HT1A
[9] = target: hM2 muscarinic receptor (Homo sapiens (Human), UniProt P08172); test: Off-target binding, M2
[10] = target: Alpha 2C adrenergic receptor (Homo sapiens (Human), UniProt P18825); test: Off-target binding, α2C
Description: as §1

[11] = target: PBR (Homo sapiens (Human), UniProt P30536); test: Off-target binding, PBR; details: for Ki: off-target binding; for Interaction at PBR: 10 μM
Chain of PBR (P30536 whole entry, species assumed): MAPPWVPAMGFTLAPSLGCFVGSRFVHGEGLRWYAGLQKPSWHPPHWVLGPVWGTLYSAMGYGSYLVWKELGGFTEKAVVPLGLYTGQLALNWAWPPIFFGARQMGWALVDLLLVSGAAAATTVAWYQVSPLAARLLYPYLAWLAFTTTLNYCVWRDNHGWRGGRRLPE
Description: as §1

[12] = target: hA3AR (Homo sapiens (Human), UniProt P0DMS8); test: Radioligand binding at hA3AR, CHO cell membranes, [125I]I-AB-MECA
Chain of hA3AR (P0DMS8 whole entry): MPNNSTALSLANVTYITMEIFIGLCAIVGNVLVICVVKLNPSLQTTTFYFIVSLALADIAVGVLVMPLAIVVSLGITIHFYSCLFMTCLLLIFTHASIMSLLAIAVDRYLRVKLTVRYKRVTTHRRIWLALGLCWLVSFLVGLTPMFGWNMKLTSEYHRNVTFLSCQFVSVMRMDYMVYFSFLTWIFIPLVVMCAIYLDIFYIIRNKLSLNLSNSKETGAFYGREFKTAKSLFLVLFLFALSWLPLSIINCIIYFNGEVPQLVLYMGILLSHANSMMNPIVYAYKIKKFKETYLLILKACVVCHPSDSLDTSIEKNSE

[13] = target: hA1AR (Homo sapiens (Human), UniProt P30542); test: Radioligand binding at hA1AR, CHO cell membranes, [3H]R-PIA; details: read-out: hA1AR % inhibition
Chain of hA1AR (P30542 whole entry): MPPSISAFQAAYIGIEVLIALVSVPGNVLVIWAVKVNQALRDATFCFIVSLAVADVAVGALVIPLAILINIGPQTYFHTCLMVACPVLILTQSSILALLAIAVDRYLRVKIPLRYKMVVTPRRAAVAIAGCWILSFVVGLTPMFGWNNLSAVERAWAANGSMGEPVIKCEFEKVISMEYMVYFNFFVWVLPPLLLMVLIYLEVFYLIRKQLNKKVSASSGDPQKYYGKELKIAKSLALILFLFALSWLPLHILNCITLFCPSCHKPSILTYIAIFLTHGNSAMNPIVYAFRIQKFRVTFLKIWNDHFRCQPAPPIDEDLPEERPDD

[14] = target: hA2AAR (Homo sapiens (Human), UniProt P29274); test: Radioligand binding at hA2AAR, HEK293 cell membranes, [3H]CGS21680; details: read-out: hA2AAR % inhibition
Chain of hA2AAR (P29274 whole entry): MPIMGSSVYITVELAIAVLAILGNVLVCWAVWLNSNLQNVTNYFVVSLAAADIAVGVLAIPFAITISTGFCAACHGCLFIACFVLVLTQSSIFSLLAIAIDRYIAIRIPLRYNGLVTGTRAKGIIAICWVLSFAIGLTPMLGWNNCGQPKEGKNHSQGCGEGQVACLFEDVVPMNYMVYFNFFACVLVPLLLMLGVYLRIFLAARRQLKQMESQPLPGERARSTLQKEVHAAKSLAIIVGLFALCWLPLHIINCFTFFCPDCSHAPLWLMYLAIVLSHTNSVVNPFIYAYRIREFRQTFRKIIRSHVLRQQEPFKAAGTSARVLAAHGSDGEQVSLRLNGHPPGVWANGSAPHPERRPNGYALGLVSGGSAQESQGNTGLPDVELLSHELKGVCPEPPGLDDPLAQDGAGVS

[15] = target: mA3AR (Mus musculus (Mouse), UniProt Q61618); test: Competition binding at mA3AR, HEK293 cell membranes
Chain of mA3AR (Q61618 whole entry): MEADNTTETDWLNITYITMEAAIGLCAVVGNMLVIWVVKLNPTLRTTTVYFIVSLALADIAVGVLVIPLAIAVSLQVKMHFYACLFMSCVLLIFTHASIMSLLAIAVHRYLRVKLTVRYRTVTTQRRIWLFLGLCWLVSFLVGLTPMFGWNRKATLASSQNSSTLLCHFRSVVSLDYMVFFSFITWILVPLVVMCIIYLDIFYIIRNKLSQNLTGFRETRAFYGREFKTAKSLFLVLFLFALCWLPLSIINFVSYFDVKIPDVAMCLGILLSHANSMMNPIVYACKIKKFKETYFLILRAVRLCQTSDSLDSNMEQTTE

[16] = tested on: chronic constriction injury model of neuropathic pain; test: CCI model of neuropathic pain, reversal of mechano-allodynia; format: in vivo, mice; details: for Max. effect Emax (% ± SEM) / Time of peak protection: ipsilateral hind paw; for Efficacy in reversing NP in vivo (of full reversal at peak effect) / Duration of action: CCI model
[17] = target: mA2AAR (Mus musculus (Mouse), UniProt Q60613); test: Competition binding at mA2AAR, HEK293 cell membranes; details: read-out: A2AAR % inhibition, mouse data (m) (converted)
Chain of mA2AAR (Q60613 whole entry): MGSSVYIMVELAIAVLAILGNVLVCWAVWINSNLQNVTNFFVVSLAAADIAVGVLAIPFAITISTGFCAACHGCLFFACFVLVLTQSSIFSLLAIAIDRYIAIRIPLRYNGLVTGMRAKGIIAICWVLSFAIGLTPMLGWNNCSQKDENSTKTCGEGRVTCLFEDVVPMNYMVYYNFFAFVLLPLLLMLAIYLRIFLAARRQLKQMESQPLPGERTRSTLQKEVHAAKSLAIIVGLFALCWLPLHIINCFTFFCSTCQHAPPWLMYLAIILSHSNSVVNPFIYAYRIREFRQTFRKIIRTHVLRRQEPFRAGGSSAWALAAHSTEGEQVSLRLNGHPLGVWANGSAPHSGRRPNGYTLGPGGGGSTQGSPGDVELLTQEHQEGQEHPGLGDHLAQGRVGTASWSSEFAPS

[18] = tested on: muscarinic, adrenergic, dopamine, GABA, histamine, opiate, serotonin receptors and transporters; test: Off-target binding panel (receptors and transporters of Table 5); details: for Interactions at other receptors of the off-target panel: 10 μM
Description: as §1

[19] = target: mA1AR (Mus musculus (Mouse), UniProt Q60612); test: Competition binding at mA1AR, HEK293 cell membranes; details: read-out: A1AR % inhibition, mouse data (m)
Chain of mA1AR (Q60612 whole entry): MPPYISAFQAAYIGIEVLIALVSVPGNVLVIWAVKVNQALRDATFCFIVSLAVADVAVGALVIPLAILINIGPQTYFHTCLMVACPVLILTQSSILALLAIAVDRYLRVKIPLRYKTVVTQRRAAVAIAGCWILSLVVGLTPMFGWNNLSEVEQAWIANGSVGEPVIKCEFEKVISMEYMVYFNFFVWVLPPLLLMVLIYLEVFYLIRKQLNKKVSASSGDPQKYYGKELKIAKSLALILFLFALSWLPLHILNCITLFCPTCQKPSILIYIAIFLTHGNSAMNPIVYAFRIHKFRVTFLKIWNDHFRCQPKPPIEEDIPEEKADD

[20] = target: human DAT (Homo sapiens (Human), UniProt Q01959); test: Radioligand ([3H]WIN35428) binding at the dopamine transporter; details: for Ki: off-target binding
Chain of human DAT (Q01959 whole entry): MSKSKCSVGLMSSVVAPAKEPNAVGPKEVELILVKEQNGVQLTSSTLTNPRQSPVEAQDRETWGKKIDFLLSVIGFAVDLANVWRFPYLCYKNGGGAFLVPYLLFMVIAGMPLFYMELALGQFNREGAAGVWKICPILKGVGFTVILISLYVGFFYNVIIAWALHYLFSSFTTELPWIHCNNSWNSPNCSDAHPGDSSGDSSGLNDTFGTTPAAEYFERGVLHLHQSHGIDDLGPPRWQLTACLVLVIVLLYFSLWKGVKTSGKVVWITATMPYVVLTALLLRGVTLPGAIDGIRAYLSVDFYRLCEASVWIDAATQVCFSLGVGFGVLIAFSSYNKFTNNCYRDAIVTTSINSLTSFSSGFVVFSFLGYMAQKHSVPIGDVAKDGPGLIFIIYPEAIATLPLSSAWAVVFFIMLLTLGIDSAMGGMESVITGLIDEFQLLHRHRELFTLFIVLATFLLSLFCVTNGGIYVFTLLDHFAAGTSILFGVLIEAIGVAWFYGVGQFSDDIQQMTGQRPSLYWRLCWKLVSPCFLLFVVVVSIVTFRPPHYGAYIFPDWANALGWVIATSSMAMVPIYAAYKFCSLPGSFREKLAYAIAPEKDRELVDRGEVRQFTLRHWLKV

[21] = Stability in simulated fluids (gastric, intestinal); format: in vitro ADME
Description: In vitro stability parameters for selected compounds are set forth in Table 6, in accordance with an embodiment of the invention.

[22] = target: r Sigma 1 (Rattus norvegicus (Rat), UniProt Q9R0C9); test: Off-target binding, Sigma-1; details: 10 μM
Description: as §1

[23] = tested on: chronic constriction injury (CCI) model, mechano-allodynia; test: Morphine analgesic tolerance in CCI model, co-administration with A3AR agonist; format: in vivo, mice

SMILES: CNC(=O)C12CC1C(n1cnc3c(NCc4cccc(Cl)c4)nc(C#Cc4ccc(F)c(F)c4)nc31)C(O)C2O (single isomer, unassigned) [MRS5698]
- Ki ([1]; read-out: Ki at Sigma-2 (σ2)): 910 nM
- Ki ([1]; read-out: Ki class at σ2): < 1000 nM
- Ki ([2]; read-out: Ki at H4): 9400 nM
- Ki ([2]; read-out: Ki class at H4): 1000 to 10000 nM
- Ki ([3]; Ki at 5HT2C): 5800 nM
- Ki ([3]; Ki class at 5HT2C): 1000 to 10000 nM
- Ki ([4]; read-out: Ki at β3): 5800 nM
- Ki ([4]; read-out: Ki class at β3): 1000 to 10000 nM
- Ki ([5]; read-out: Ki at α2B): 2900 nM and 4800 nM
- Ki ([5]; read-out: Ki class at α2B): 1000 to 10000 nM
- Ki ([6]; read-out: Ki at DOR): 2500 nM
- Ki ([6]; read-out: Ki class at DOR): 1000 to 10000 nM
- Ki ([7]; read-out: Ki at 5HT2B): 2600 nM
- Ki ([7]; read-out: Ki class at 5HT2B): 1000 to 10000 nM
- Ki ([8]; read-out: Ki at 5HT1A): 7600 nM
- Ki ([8]; read-out: Ki class at 5HT1A): 1000 to 10000 nM
- Ki ([9]; read-out: Ki at M2): 5400 nM
- Ki ([9]; read-out: Ki class at M2): 1000 to 10000 nM
- Ki ([10]; read-out: Ki at α2C): 2000 nM
- Ki ([10]; read-out: Ki class at α2C): 1000 to 10000 nM
- Ki ([11]; read-out: Ki at PBR): 340 nM
- Ki ([11]; read-out: Ki class at PBR): < 1000 nM

SMILES: CNC(=O)[C@@]12C[C@@H]1[C@@H](n1cnc3c(/C=C(\O)c4ccc(C(C)(C)C)cc4)nc(C#Cc4ccc(C(C)(C)C)cc4)nc31)C(O)C2O (stereo in doubt) [Compound 40, (1S,2S,3R,4R,5S)-4-(6-((Z)-2-(4-(tert-Butyl)phenyl)-2-hydroxyvinyl)-2-((4-(tert-butyl)phenyl)ethynyl)-9H-purin-9-yl)-2,3-dihydroxy-N-methylbicyclo[3.1.0]hexane-1-carboxamide]
- Ki [12]: 78.5 ± 19.8 nM
- inhibition at 10 µM [13]: 16 ± 5%
- inhibition at 10 µM [14]: 16 ± 7%
- Ki [15]: 136 ± 9 nM

SMILES: CNC(=O)[C@@]12C[C@@H]1[C@@H](n1cnc3c(NC)nc(C#Cc4ncccn4)nc31)[C@H](O)[C@@H]2O [Compound 6, (1S,2R,3S,4R,5S)-2,3-Dihydroxy-N-methyl-4-(6-(methylamino)-2-(pyrimidin-2-ylethynyl)-9H-purin-9-yl)bicyclo[3.1.0]hexane-1-carboxamide]
- inhibition at 10 µM [13]: 25 ± 10%
- inhibition at 10 µM [14]: 27 ± 5%
- Ki [15]: 65 ± 6 nM
- Max. effect Emax (% ± SEM) ([16]; 3 μmol/kg p.o., mice): 92.3 ± 7.7%
- Time of peak protection ([16]; 3 μmol/kg p.o., mice): 0.5 to 1 h
- Efficacy in reversing NP in vivo (of full reversal at peak effect) [16]: less than full efficacy

SMILES: CNC(=O)[C@@]12C[C@@H]1[C@@H](n1cnc3c(NC)nc(C#Cc4cccs4)nc31)[C@H](O)[C@@H]2O [Compound 8, (1S,2R,3S,4R,5S)-2,3-Dihydroxy-N-methyl-4-(6-(methylamino)-2-(thiophen-2-ylethynyl)-9H-purin-9-yl)bicyclo[3.1.0]hexane-1-carboxamide]
- inhibition at 10 µM [17]: 3%
- Off-target effects compared with MRS5698 and MRS5676 [18]: significantly fewer off-target effects
- Interactions at other receptors of the off-target panel [18]: No interactions at other receptors
- Ki ([5]; read-out: Ki at α2B): 5500 nM
- inhibition at 10 µM [13]: 25%
- inhibition at 10 µM [14]: 20 ± 6%
- Ki [15]: 43 ± 2 nM
- inhibition at 10 µM [19]: 47%
- Ki ([20]; read-out: Ki at DAT): 760 nM
- Ki ([20]; read-out: Ki class at DAT): < 1000 nM
- Max. effect Emax (% ± SEM) ([16]; 3 μmol/kg p.o., mice): 100 ± 0.0%
- Time of peak protection ([16]; 3 μmol/kg p.o., mice): 1 h
- Duration of action [16]: ~3 h
- Efficacy in reversing NP in vivo (of full reversal at peak effect) [16]: ~100%

SMILES: CNC(=O)[C@@]12C[C@@H]1[C@@H](n1cnc3c(NC)nc(C#Cc4cc[nH]n4)nc31)[C@H](O)[C@@H]2O [Compound 9, (1S,2R,3S,4R,5S)-4-(2-((1H-Pyrazol-3-yl)ethynyl)-6-(methylamino)-9H-purin-9-yl)-2,3-dihydroxy-N-methylbicyclo[3.1.0]hexane-1-carboxamide]
- inhibition at 10 µM [13]: 30%
- inhibition at 10 µM [14]: 19 ± 2%
- Ki [15]: 50 ± 2 nM
- Time of peak protection ([16]; 3 μmol/kg p.o., mice): 0.5 to 1 h

SMILES: CNC(=O)[C@@]12C[C@@H]1[C@@H](n1cnc3c(NC)nc(C#Cc4ccco4)nc31)[C@H](O)[C@@H]2O [Compound 17, (1S,2R,3S,4R,5S)-4-(2-(Furan-2-ylethynyl)-6-(methylamino)-9H-purin-9-yl)-2,3-dihydroxy-N-methylbicyclo[3.1.0]hexane-1-carboxamide]
- Interaction at Sigma-2 [1]: weak interactions
- inhibition at 10 µM [17]: 17%
- Off-target effects compared with MRS5698 and MRS5676 [18]: significantly fewer off-target effects
- Interactions at other receptors of the off-target panel [18]: No interactions
- half-life ([21]; simulated gastric fluid, read-out: Stability in simulated fluids (t1/2, min): Gastric): > 480 min
- half-life ([21]; simulated intestinal fluid, read-out: Stability in simulated fluids (t1/2, min): Intestinal): > 480 min
- Ki [12]: 0.62 ± 0.06 nM
- inhibition at 10 µM [13]: 30%
- inhibition at 10 µM [14]: 18 ± 9%
- Ki [15]: 54 ± 11 nM
- inhibition at 10 µM [19]: 59%
- Effect at 3 h (% ± SEM) ([16]; 3 μmol/kg p.o., mice, 3 h): 27.6 ± 1.3%
- Max. effect Emax (% ± SEM) ([16]; 3 μmol/kg p.o., mice): 100 ± 0.0%
- Time of peak protection ([16]; 3 μmol/kg p.o., mice): 1 h
- Duration of action [16]: ~3 h
- Efficacy in reversing NP in vivo (of full reversal at peak effect) [16]: ~100%
- Interaction at Sigma-1 [22]: weak interactions
- Interaction at PBR [11]: weak interactions

SMILES: CNC(=O)[C@@]12C[C@@H]1[C@@H](n1cnc3c(NC)nc(C#Cc4cnn(C)c4)nc31)[C@H](O)[C@@H]2O [Compound 18, (1S,2R,3S,4R,5S)-2,3-Dihydroxy-N-methyl-4-(2-((1-methyl-1H-pyrazol-4-yl)ethynyl)-6-(methylamino)-9H-purin-9-yl)bicyclo[3.1.0]hexane-1-carboxamide]
- Interaction at Sigma-2 [1]: weak interactions
- inhibition at 10 µM [17]: 16%
- Off-target effects compared with MRS5698 and MRS5676 [18]: significantly fewer off-target effects
- Interactions at other receptors of the off-target panel [18]: No interactions
- inhibition at 10 µM [13]: 35%
- inhibition at 10 µM [14]: 12 ± 6%
- inhibition at 10 µM [19]: 72%
- Max. effect Emax (% ± SEM) ([16]; 3 μmol/kg p.o., mice): 87.3 ± 12.7%
- Time of peak protection ([16]; 3 μmol/kg p.o., mice): 1 h
- Efficacy in reversing NP in vivo (of full reversal at peak effect) [16]: ~100%
- Interaction at Sigma-1 [22]: weak interactions
- Interaction at PBR [11]: weak interactions

SMILES: CCNc1nc(C#Cc2ccc(Cl)s2)nc2c1ncn2[C@H]1C(O)[C@@H](O)[C@]2(C(=O)NC)C[C@H]12 (stereo partly shown) [Compound 126]
- Increase of the level of radioligand ([3H]WIN35428) binding at the human DAT ([20]; 10 μM): 329%

SMILES: CNC(=O)[C@@]12C[C@@H]1[C@@H](n1cnc3c(NC)nc(C#Cc4ccncc4)nc31)[C@H](O)[C@@H]2O [Compound 300, (1S,2R,3S,4R,5S)-2,3-Dihydroxy-N-methyl-4-(6-(methylamino)-2-(pyridin-4-ylethynyl)-9H-purin-9-yl)bicyclo[3.1.0] hexane-1-carboxamide]
- Ki [12]: 2.07 ± 0.16 nM
- inhibition at 10 µM [13]: 15%
- inhibition at 10 µM [14]: 2 ± 2%
- Time of peak protection ([16]; 3 μmol/kg p.o., mice): 1 h
- Efficacy in reversing NP in vivo (of full reversal at peak effect) [16]: low efficacy

SMILES: CN1CC[C@]23c4c5ccc(O)c4O[C@H]2[C@@H](O)C=C[C@H]3[C@H]1C5 [morphine]
- Reversal of mechano-allodynia by morphine alone on daily dosing ([23]; given daily over 25 days): loses its ability to reverse mechano-allodynia
- Reversal of mechano-allodynia by morphine alone ([23]; s.c. injection at day 7): near-to-maximal reversal of mechano-allodynia
